Data reported in ChEMBL document CHEMBL4028829, “New derivatives of ursolic acid through the biotransformation by Bacillus megaterium CGMCC 1.1741 as inhibitors on nitric oxide production” (Bioorg Med Chem Lett, 2017).

Assays:
RAW264.7 [1] = assay: Inhibition of LPS-induced NO production in mouse RAW264.7 cells preincubated for 1 hr followed by LPS stimulation measured after 24 hrs by Griess assay; assay type: functional, cell-based
RAW264.7 [2] = assay: Pro-inflammatory activity in mouse RAW264.7 cells assessed as LPS-induced NO production at 0.625 to 60 uM preincubated for 1 hr followed by LPS stimulation measured after 24 hrs by Griess assay; assay type: ADME, cell-based; conditions: raw264.7, 24 h
[3] = Mus musculus, RAW264.7, read-out: IC50

IC50 (RAW264.7 [1]; [3]) [µM]	IC50 (RAW264.7 [1]; raw264.7)	Structure (SMILES)	Activity (RAW264.7 [2])
40.1		C[C@H]1[C@H](C)CC[C@]2(C(=O)O)CC[C@]3(C)C(=C[C@@H](O)[C@@H]4[C@@]5(C)[C@H](O)C[C@H](O)C(C)(C)[C@@H]5CC[C@]43C)[C@H]12	
1.24		C[C@H]1[C@H](C)CC[C@]2(C(=O)O)CC[C@]3(C)C(=C[C@@H](O)[C@@H]4[C@@]5(C)[C@H](O)CC(=O)C(C)(C)[C@@H]5CC[C@]43C)[C@H]12	
> 60		C[C@H]1[C@H](C)CC[C@]2(C(=O)O[C@@H]3O[C@H](CO)[C@@H](O)[C@H](O)[C@H]3O)CC[C@]3(C)C(=C[C@@H](O)[C@@H]4[C@@]5(C)[C@H](O)CC(=O)C(C)(C)[C@@H]5CC[C@]43C)[C@H]12	
1.71		C[C@H]1[C@H](C)CC[C@@]23CC[C@]4(C)[C@@](C=C[C@@H]5[C@@]6(C)[C@H](O)CC(=O)C(C)(C)[C@@H]6CC[C@]54C)(OC2=O)[C@H]13	
	Not Active	C[C@H]1[C@H](C)CC[C@]2(C(=O)O)CC[C@]3(C)C(=CC[C@@H]4[C@@]5(C)CC[C@H](O)C(C)(C)[C@@H]5CC[C@]43C)[C@H]12 [URSOLIC ACID]	Toxic
4.94		C[C@H]1[C@H](C)CC[C@]2(C(=O)O)CC[C@]3(C)C(=CC[C@@H]4[C@@]5(C)CCC(=O)C(C)(C)[C@@H]5CC[C@]43C)[C@H]12 [URSONIC ACID]	

Structure (SMILES)	IC50 (RAW264.7 [1]; [3]) [µM]	IC50 (RAW264.7 [1]; raw264.7)	Activity (RAW264.7 [2])
O=c1c(O)c(-c2ccc(O)c(O)c2)oc2cc(O)cc(O)c12 [QUERCETIN]	4.41		
